Measured values reported in US7329798B2, “Harvest-inducible regulatory elements and methods of using same” (University of Guelph, priority 2002, dated 2008).

Key:
[1] = system: H7 regulatory region fused to GUS reporter gene in transgenic tobacco plants; assay: In planta induction of GUS expression by ABA (histochemical GUS assay); type: in vivo, tobacco (cultivar PetH4); details: plants sprayed with 25-50 mL 6.0 AM ABA in distilled water with Tween-20, left 24 h; non-treated plants exhibited no GUS activity
Procedure: Tobacco leaves from regenerated plants grown in the greenhouse, and leaves and stems from M. truncatula plants grown from the cocultivated seedlings were incubated in the X-gluc substrate and the green pigments removed for visualization of the blue precipitate resulting from GUS enzyme activity (Jefferson et al., 1987, EMBO J. 6:3901-7).
(§1) In order to test induction of the expression of transgenes using abscisic acid (ABA), the H7 promoter was fused to the beta-glucuronidase (GUS) reporter gene and histochemical assays conducted for GUS gene activity, which results in a blue colour in plant tissue (Jefferson et al., 1987, EMBO J. 6:3901-7). The promoter region for the H7 (nucleotides 1-634 of FIG. 8; SEQ ID NO:4) was fused to the 5′ terminus of the GUS gene in the binary vector pB1101 (Jefferson et al., 1987, EMBO J. 6:3901-7, FIG. 1a), as described in Example 4.
The binary vector was transferred tobacco plants (cultivar PetH4) using Agrobacterium tumefaciens, as previously described in Example 4.
(§2) Transgenic plants were grown to maturity, but prior to flowering, in a greenhouse at 23-25° C., with supplemental light to provide an approximately 16 h photoperiod and with 20-20-20 fertilizer as required.
Plants were sprayed with 25-50 mL 6.0 AM ABA (trans isomers ABA, Sigma) in distilled water, with a drop of Tween™-20 until the leaves were dripping. […]

[2] = system: H7 regulatory region fused to GUS reporter gene in transgenic tobacco callus; assay: In vitro induction of GUS expression by ABA in callus (histochemical GUS assay); type: cell-based, tobacco (cultivar PetH4); details: callus on solid media pH 5.0 with 40 μM ABA, 2 days, 25° C.
From the text: as §1, §2
Leaf discs were cut and surface sterilized using 3.5% bleach for 20 min, then washed with ethanol and rinsed three times with distilled water. The washed discs were plated in Petri dishes on original callusing media (MS medium supplemented with vitamins, 2.0 mg/L NAA, 0.2 mg/L BAP pH 5.8, 7 g/L agar solid media and 100 mg/L kanamycin). The Petri dishes were then placed in a dark incubator at 25° C. for 3 days. Following dark incubation, plated discs were then incubated at 25° C. with a 16 h photoperiod for 2-3 weeks.
Over this time, abundant callus (white or pale green) are formed, overgrowing the original tissue. […]

CC1=CC(=O)CC(C)(C)[C@@]1(O)/C=C/C(C)=C\C(=O)O [ABA, abscisic acid]
GUS activity in leaves [1]: GUS activity was detected | GUS expression in callus [2]: GUS is expressed in the callus
